# Laboratory results reported in patent US20260365642A1, “ANTIPARASITIC COMPOUNDS” (Animol Discovery, Inc., priority 2023, published 2026).
# System: Dirofilaria immitis L1 larvae
# Test: Screening against microfilaria (L1 larvae) of Dirofilaria immitis, survival/motility
# Assay type: in vivo
# Conditions: 72 h, read-out: Ranked D. immitis L1 MED Activity
# Experimental: Example 44. Screening of Compounds Against Microfilaria of Dirofilaria immitis
# To evaluate the efficacy of compounds of the disclosure against Dirofilaria immitis, L1 stage larvae were exposed to various concentrations of the compounds to determine survival or paralysis of the larvae. Results are reported as the minimum effective dose (MED), defined as the concentration required to eliminate motility.
# To perform the assay, microfilaria of Dirofilaria immitis were added to the wells of a microtiter plate containing buffer and the test compounds in DMSO. Microfilaria exposed to DMSO alone served as controls. An assessment was conducted at 72 hours to determine survival of the microfilaria.
row,SMILES,minimal effective concentration [µM]
1,"CN(CC1CN(S(C)(=O)=O)CCS1(=O)=O)c1cc(N2CCCC3(CCCCC3)C2)nc(C(F)(F)F)n1 (stereo not drawn) [Compound 42, 2-(((6-(2-azaspiro[5.5]undecan-2-yl)-2-(trifluoromethyl)pyrimidin-4-yl)(methyl)amino)methyl)-4-(methylsulfonyl)thiomorpholine 1,1-dioxide]",> 100000
2,"CN(CC1CN(S(C)(=O)=O)CCS1)c1cc(N2CCCC3(CCCCC3)C2)nc(C(F)(F)F)n1 (stereo not drawn) [Compound 43, N-methyl-N-((4-(methylsulfonyl)thiomorpholin-2-yl)methyl)-6-(2-azaspiro[5.5]undecan-2-yl)-2-(trifluoromethyl)pyrimidin-4-amine]",> 100000
3,"CN(CCC1CN(S(C)(=O)=O)CCO1)c1cc(N2CCCC3(CCCCC3)C2)nc(C(F)(F)F)n1 (stereo not drawn) [Compound 44, N-methyl-N-(2-(4-(methylsulfonyl)morpholin-2-yl)ethyl)-6-(2-azaspiro[5.5]undecan-2-yl)-2-(trifluoromethyl)pyrimidin-4-amine]",> 100000
